Experimental data taken from patent publication EP0460690A2, “Use of phenolsulfophthaline derivatives for the treatment of osteoporosis” (THE GREEN CROSS CORPORATION, priority 1990, dated 1991).

How the values were obtained:
[1] = system: rats suffering from osteoporosis; test: Bone mass increase in osteoporosis rats (ovariectomy and sciatic nerve excision); format: in vivo, Wister female rats; settings: thigh bone, oral 100 µg/kg body weight everyday in 5 % Tween 20, after 12 weeks; for Bone Mass Ash wt./unit vol.: carrier 370 ± 19, normal rats 387 ± 16; for Bone Mass Dry wt./unit vol.: carrier 821 ± 15, normal rats 976 ± 11
Source text: The effects of the phenolsulfophthalein compounds of the present invention of increasing bone mass were examined by using rats suffering from osteoporosis.
Wister female rats aged 7 to 8 months (8 rats per group) were subjected to ovariectomy and sciatic nerve excision to thereby cause osteoporosis. Starting from the next day after the operation, compound 1, as described above, and compound 2 (represented by formula (I), wherein R¹ and R² are both acetyl groups) each dispersed in 5 % Tween 20 were orally administered in a dose of 100 µg/kg body weight everyday. After 12 weeks, the thigh bones of the animals were collected and the volume, dry weight and ash weight were measured. Thus the dry weight and ash weight per unit volume were determined.

[2] = system: Wister female rats; test: Acute toxicity, oral administration; format: in vivo; settings: dispersed in 5 % Tween 20, eight rats, dose of 1 g/kg body weight
Source text: Compound 1 dispersed in 5 % Tween 20 was orally administered to eight Wister female rats aged 7 to 8 months.

[3] = target: T1, estrogen receptor in mastocarcinoma (Homo sapiens, UniProt P03372); settings: literature report; cited from earlier work
T1 construct: host or cells: mastocarcinoma
T1 sequence (P03372 1-595): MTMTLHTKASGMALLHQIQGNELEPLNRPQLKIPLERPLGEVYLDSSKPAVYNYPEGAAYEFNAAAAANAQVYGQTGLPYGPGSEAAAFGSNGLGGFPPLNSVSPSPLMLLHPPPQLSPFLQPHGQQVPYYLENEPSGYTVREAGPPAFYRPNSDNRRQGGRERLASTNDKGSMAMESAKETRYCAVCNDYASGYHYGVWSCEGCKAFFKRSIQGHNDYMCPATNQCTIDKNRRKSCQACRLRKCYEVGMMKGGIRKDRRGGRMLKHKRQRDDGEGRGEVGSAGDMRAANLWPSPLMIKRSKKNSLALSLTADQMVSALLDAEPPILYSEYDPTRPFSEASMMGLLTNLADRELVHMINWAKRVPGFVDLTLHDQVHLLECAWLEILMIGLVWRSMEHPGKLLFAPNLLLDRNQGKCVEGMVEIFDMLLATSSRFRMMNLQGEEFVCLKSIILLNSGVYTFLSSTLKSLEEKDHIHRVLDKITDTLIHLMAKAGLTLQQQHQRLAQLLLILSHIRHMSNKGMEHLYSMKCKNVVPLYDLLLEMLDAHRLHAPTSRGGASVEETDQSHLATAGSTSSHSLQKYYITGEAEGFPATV

Row | Compound | Bone Mass Ash wt./unit vol. [1] | Bone Mass Dry wt./unit vol. [1] | mortality (acute toxicity) [2] | binding to estrogen receptor [3]
1 | O=S(=O)(Oc1ccccc1)c1ccccc1C(c1ccc(O)cc1)c1ccc(O)cc1 [compound 1] | 385 ± 12 mg/mL | 861 ± 12 mg/mL | no animal died | 
2 | CC(=O)Oc1ccc(C(c2ccc(OC(C)=O)cc2)c2ccccc2S(=O)(=O)Oc2ccccc2)cc1 [compound 2] | 383 ± 14 mg/mL | 856 ± 15 mg/mL |  | 
3 | O=S(=O)(Oc1ccccc1)c1ccccc1C(c1ccc(O)cc1)c1ccc(O)cc1 [drawing 1] |  |  |  | binding to an estrogen receptor
